In series [1] the test system is Vibrio harveyi BB7XM. Nature of the series: Vibrio harveyi mutagenicity assay, BB7XM. The class given is cell-based. The note with it: 40 ng/mL; for MI (mutagenicity index): mutagenic if MI above 2.0; for Number of revertants per plate, Mean ± SD: mutagenicity. On the procedure:
From them, 0.2 mM working solutions were prepared by dilution with water. […] Working solutions were prepared by 1:100 dilution of stock solution in water, and final compound concentration assayed was 40 ng/mL.
(§1) Four Vibrio harveyi strains were used in this study: a wild-type BB7 (naturally found in the Baltic Sea) and three genetically modified strains, namely BB7M (obtained by the introduction of pAB1273 plasmid containing the genes mucA and mucB to enhance the error-prone DNA repair), BB7X (hypersensitive to UV radiation after genetic modification with Tn5TpMCS), and BB7XM (containing the two abovementioned modifications). These strains were kindly provided by Prof. G. Węgrzyn (Department of Molecular Biology, University of Gdańsk, Poland).
(§2) It causes point mutations at the genome as it induces G:C → A:T transitions in Vibrio harveyi strains and in other bacteria such as Escherichia coli and S. typhimurium. […] Next, its working solution was prepared in sterile water, being 40 ng/mL its final concentration.
To perform the V. harveyi mutagenicity test, 10 μL of a working solution of the tested compound (100 μg/mL) were added to V. harveyi bacterial culture (OD600 = 0.1) in NaCl-containing BOSS liquid medium, being 40 ng/mL the final concentration of the tested compound. […] Then, an inoculum containing 5 × 10^6 cells was added to solid BOSS agar plate supplemented with neomycin sulfate at a final concentration of 100 μg/mL. Samples were left incubating 48 h at 30 °C, and revertant colonies were counted manually.

A further series deals with Vibrio harveyi BB7. Nature of the series: Vibrio harveyi antimutagenicity assay against NQNO, BB7. The class given is cell-based. The conditions noted are these: for % inhibition of NQNO mutagenicity / Number of revertants per plate, Mean ± SD: BB7, compound 40 ng/mL + NQNO 40 ng/mL; for Number of revertants per plate, Mean ± SD: antimutagenicity, NQNO line = NQNO as a single compound; for chemopreventive (antimutagenic) effect, class: wild BB7 strain, against NQNO.
Description: as §1, §2
(§3) Procedure followed in the V. harveyi antimutagenicity assay was similar to the mutagenicity method described before. […] The results were expressed as the inhibition percentage of mutagenic effect, which was calculated with the formula: 100 − [(R 1/R 2) × 100], where R 1 is the number of revertants per plate in the presence of both mutagen and tested substance, and R 2 is the number of revertants per plate in the presence of mutagen. […] S. typhimurium antimutagenicity assay was based on similar assumptions as the V. harveyi antimutagenicity test. In this case, the chemopreventive activity was determined at two concentrations of a tested compounds and a standard mutagen, i.e., 40 and 500 ng/mL.

Series [2] deals with Cunninghamella elegans 1906 DMS. The series can be described thus: Cunninghamella biotransformation assay, C. elegans. The class given is in vitro ADME. The conditions noted are these: 7-day incubation; for % of compound/metabolite in C. elegans: 0.5 mg/mL, LC-MS/MS; for % of tested (parental) compound metabolized at the end of experiment: C. elegans. On the procedure:
(§4) Three different strains of Cunninghamella were used: Cunninghamella echinulata NRRL 1384, Cunninghamella blakesleeana 1908 DMS, and Cunninghamella elegans 1906 DMS. The first was provided by Dr. A.J. Carnell (University of Liverpool, UK), whereas the two remaining were purchased from Deutsche Sammlung von Mikroorganismen und Zellkulturen GmbH (DMSZ, Braunschweig, Germany).
(§5) Cunninghamella strains were cultivated on solid potato dextrose agar (PDA) plates at 28 °C. After 4 days, a liquid fermentation basal medium was prepared by the addition of 6 g of D-glucose, 1.5 g of NaCl, 1.5 g of yeast extract from Saccharomyces cerevisiae, and 1.5 g of K2HPO4 to 300 mL of distilled water. Aliquots of 24.5 mL of medium were inoculated with 300 μL of suspension of fungal spores obtained after wetting colonies in PDA. The fungi were incubated with shaking until the formation of spherical clumps.
(§6) Compounds 2–4 were evaluated in this experiment. Once microorganisms formed spherical clumps in the preliminary incubation, the corresponding tested compound was added to the broth and the mixture was incubated for 7 days. Two control experiments were also performed, in the absence of compound and fungus, respectively. Biotransformation progress was monitored by TLC and by liquid chromatography electrospray ionization-tandem mass spectrometry (LC-MS/MS). Monitoring was performed at four different incubation times: 30 min, 3 days, 5 days, and 7 days.
(§7) To analyze metabolites in LC-MS/MS, an aliquot of 500 μL of filtered sample was taken and extracted with 500 μL of dichloromethane. The organic fraction was dried with sodium sulfate, filtered, and evaporated. The obtained residue was analyzed in LC-MS/MS. At the end of experiment, all the remaining medium was extracted with 25 mL of dichloromethane after separating the fungal clumps by filtration over cellulose filters.
(§8) Agilent 1100 HPLC system (Agilent Technologies, Waldbronn, Germany) equipped with a Xbridge™ C18 analytical column (2.1 × 30 mm, […]; Waters, Dublin, Ireland) was used in the chromatographic separation of LC-MS/MS analysis. An elution gradient of acetonitrile and water, with 0.1% of formic acid, was used as a mobile phase. MS spectra were taken at Applied Biosystems MDS Sciex API 200 triple quadrupole mass analyzer (Concord, Ontario, Canada) with an electrospray ionization (ESI) interface between HPLC and MS.

The next series deals with Vibrio harveyi BB7M. The series can be described thus: Vibrio harveyi antimutagenicity assay against NQNO, BB7M. The class given is cell-based. The conditions noted are these: compound 40 ng/mL + NQNO 40 ng/mL; for Number of revertants per plate, Mean ± SD: antimutagenicity, NQNO line = NQNO as a single compound.
Description: as §1, §2, §3

In another series the test system is Cunninghamella strains. The series can be described thus: Cunninghamella biotransformation assay, three strains together and blank without fungus. The conditions noted are these: blank: control in the absence of fungus, 7-day incubation. The class given is in vitro ADME. On the procedure: as §4, §5, §6, §7
Agilent 1100 HPLC system (Agilent Technologies, Waldbronn, Germany) equipped with a Xbridge™ C18 analytical column (2.1 × 30 mm, […]; Waters, Dublin, Ireland) was used in the chromatographic separation of LC-MS/MS analysis. […]

Series [3] deals with Salmonella typhimurium TA100. The series can be described thus: Ames mutagenicity test. Type of series: cell-based. The method, then: From them, 0.2 mM working solutions were prepared by dilution with water. […]
In the Ames test, Salmonella typhimurium TA100 strain was used. This strain has a base-pair substitution that can be reverted by mutations at GC pairs. In addition, it contains mutations at uvrB-bio and rfa genes to eliminate excision repair mechanisms and to make the bacteria more permeable to chemicals, respectively. Finally, TA100 also includes pKM101 plasmid, which enhances both chemical and UV-induced mutagenesis via an increase in the error-prone recombinational DNA repair pathway. TA100 strain of S. typhimurium was provided by Dr. T. Nohmi (Division of Genetics and Mutagenesis, National Institute of Hygienic Sciences, Tokyo, Japan). V. harveyi and S. typhimurium bacterial cultures were maintained at 30 and 37 °C, respectively.
It causes point mutations at the genome as it induces G:C → A:T transitions in Vibrio harveyi strains and in other bacteria such as Escherichia coli and S. typhimurium. […]
S. typhimurium was cultivated in a fresh medium 12 h prior to a test. To perform mutagenicity assay, 100 μL of an overnight culture (containing approx. 1 × 10^8 to 2 × 10^8 bacteria) were inoculated along with 50 μL of a tested compound in 2 mL of top agar supplemented with traces of histidine and of biotin. Then the mixture was added over the surface of GM agar plates and was left incubating 48 h at 37 °C. Afterwards, the colonies were counted manually.
In general terms: The Ames test detects mutagens through reverse mutation in bacteria.

In series [4] the test system is Vibrio harveyi BB7XM. The class given is cell-based. The note with it: compound 40 ng/mL + NQNO 40 ng/mL; for Number of revertants per plate, Mean ± SD: antimutagenicity, NQNO line = NQNO as a single compound.
Description: as §1, §2, §3

Series [5] concerns Cunninghamella echinulata NRRL 1384. The series can be described thus: Cunninghamella biotransformation assay, C. echinulata. Type of series: in vitro ADME. The note with it: 7-day incubation; for % of compound/metabolite in C. echinulata: 0.5 mg/mL, LC-MS/MS; for % of tested (parental) compound metabolized at the end of experiment: C. echinulata. The method, then:
as §4, §5, §6, §7, §8

The mark [6] stands for this setting: TA100, 40 ng/mL, mutagenic if MI >2.0.
[7] abbreviates: TA100, 500 ng/mL (NQNO control stated as 40 ng/mL in method).

Experimental findings from publication PMC5756575, “In Vitro Biotransformation, Safety, and Chemopreventive Action of Novel 8-Methoxy-Purine-2,6-Dione Derivatives” (Applied Biochemistry and Biotechnology, 2017) are described below.

The structures appear in SMILES notation. Where two headings read alike, the source gives them in different places.

`COc1nc2c(c(=O)n(C)c(=O)n2C)n1CCCC(=O)NCc1ccccc1` [Compound 3, N-benzyl-4-(8-methoxy-1,3-dimethyl-2,6-dioxo-purin-7-yl)butanamide]: the “MI (mutagenicity index)” value with Vibrio harveyi BB7XM [1] is given as 1.1; in series [3] (setting [6]) it was 1.5; in series [3] (setting [7]), 0.2. The “Number of revertants per plate, Mean ± SD” value with Vibrio harveyi BB7XM [1] was 35 ± 7; with Vibrio harveyi BB7, 38 ± 9; in the series on Vibrio harveyi BB7M, 48 ± 8; in series [3] (TA100, 40 ng/mL), 53 ± 11; in series [3] (setting [7]) it was 6 ± 3; in the series on Vibrio harveyi BB7XM [4], 65 ± 7. For the same compound, the “% inhibition of NQNO mutagenicity” value in the series on Vibrio harveyi BB7 worked out at 29%; in the series with Vibrio harveyi BB7M, 50%; with Vibrio harveyi BB7XM [4] it was 15%. In addition, the “chemopreventive (antimutagenic) effect, class” value in the series on Vibrio harveyi BB7 is listed as “moderate or a close to moderate”. Also, the “% of compound/metabolite in C. elegans” value in series [2] stood at 99.4%. The “% of tested (parental) compound metabolized at the end of experiment” value in series [2] amounted to 0.6%; in series [5], 7.6%. In the series with Cunninghamella strains, the “% of compound/metabolite in blank” value is 100.0%. Also, in series [5], the “% of compound/metabolite in C. echinulata” value stood at 92.4%.

For `COc1nc2c(c(=O)n(C)c(=O)n2C)n1CCCC(=O)N1CCN(c2ccccc2)CC1` [Compound 4, 8-methoxy-1,3-dimethyl-7-[4-oxo-4-(4-phenylpiperazin-1-yl)butyl]purine-2,6-dione], the “MI (mutagenicity index)” value is 1.2 in the series on Vibrio harveyi BB7XM [1], 1.3 in series [3] (setting [6]) and 0.4 in series [3] (setting [7]). For the same compound, the “Number of revertants per plate, Mean ± SD” value in the series on Vibrio harveyi BB7XM [1] is on record as 41 ± 9; in the series with Vibrio harveyi BB7, 26 ± 6; in the series on Vibrio harveyi BB7M, 50 ± 9; in series [3] (TA100, 40 ng/mL), 48 ± 7; in series [3] (setting [7]), 10 ± 1; in the series on Vibrio harveyi BB7XM [4], 70 ± 7. For the same compound, the “% inhibition of NQNO mutagenicity” value in the series on Vibrio harveyi BB7 is 53%; in the series with Vibrio harveyi BB7M, 49%; with Vibrio harveyi BB7XM [4] it was 9%. The “chemopreventive (antimutagenic) effect, class” value in the series with Vibrio harveyi BB7 is on record as “strong (higher than 40%)”. The “% of compound/metabolite in C. elegans” value in series [2] came out at 47.0%. In addition, the figures for the “% of tested (parental) compound metabolized at the end of experiment” value in series [2] and in series [5] were 53.0% and 87.6%, respectively. The “% of compound/metabolite in blank” value with Cunninghamella strains is 100.0%. Besides, the “% of compound/metabolite in C. echinulata” value in series [5] is recorded as 12.4%.
